Data taken from PMC11047580, “Design and Synthesis of Novel Amino and Acetamidoaurones with Antimicrobial Activities” (Antibiotics, 2024).
In brackets after ≈: the same amount, converted by molar mass.

Key:
[1] = system: Helicobacter pylori (ATCC43504); assay: MIC assay; format: cell-based; conditions: two-fold serial dilutions in liquid media, n = 2–3
[2] = system: Bacillus anthracis (CNR-charbon_04022); assay: microbe, parasite or virus in culture; format: cell-based; conditions: read-out: MIC Bacillus anthracis (CNR-charbon_04022)
[3] = system: Enterococcus faecium (DSM20477); assay: MIC assay; format: cell-based; conditions: two-fold serial dilutions in liquid media, n = 2–3
[4] = system: kidney epithelial cell line A498; conditions: human
[5] = system: Shigella flexneri (ATCC12022); assay: MIC assay; format: cell-based; conditions: two-fold serial dilutions in liquid media, n = 2–3
Candida auris (DSM21092) = assay: MIC assay; format: cell-based; conditions: Candidozyma auris, two-fold serial dilutions in liquid media, n = 2–3
[6] = system: Clostridium perfringens (ATCC13124); assay: microbe, parasite or virus in culture; format: cell-based; conditions: ATCC13124, read-out: MIC Clostridium perfringens (ATCC13124)
[7] = system: Clostridium botulinum (DSM1985); assay: microbe, parasite or virus in culture; format: cell-based; conditions: DSM1985, read-out: MIC Clostridium botulinum (DSM1985)
Yersinia pestis (NR-641) = assay: microbe, parasite or virus in culture; format: cell-based; conditions: read-out: MIC Yersinia pestis (NR-641)
[8] = system: Clostridium difficile (DSM1296); assay: MIC assay; format: cell-based; conditions: Clostridioides difficile, two-fold serial dilutions in liquid media, n = 2–3
M. smegmatis ATCC700084 = assay: MIC assay (REMA); format: cell-based, Mycobacterium smegmatis; conditions: Mycolicibacterium smegmatis, ATCC700084, REMA microdilution, n = 2–3
[9] = Cytotoxic assay (resazurin); conditions: human, HaCaT normal epidermal keratinocytes
MRSA (ATCCBAA-1717) = assay: MIC assay; format: cell-based, methicillin-resistant S. aureus; conditions: Staphylococcus aureus, read-out: MIC MRSA (ATCCBAA-1717)
[10] = system: Mycobacterium abscessus R(CIP 104536^T); assay: MIC assay (REMA); format: cell-based; conditions: REMA microdilution, n = 2–3
[11] = system: Aspergillus fumigatus (DSM819); assay: MIC assay; format: cell-based; conditions: two-fold serial dilutions in liquid media, n = 2–3
[12] = system: normal lung epithelial cells BEAS-2B; conditions: human
Bacillus cereus (DSM31) = assay: MIC assay; format: cell-based; conditions: two-fold serial dilutions in liquid media, n = 2–3
[13] = system: normal lung fibroblasts IMR-90; conditions: human
[14] = Cytotoxic assay (resazurin); conditions: human, IMR-90 normal lung fibroblasts
[15] = system: Candida glabrata (DSM11226); assay: MIC assay; format: cell-based; conditions: Nakaseomyces glabratus, two-fold serial dilutions in liquid media, n = 2–3
[16] = system: Salmonella enterica (CIP80.39); assay: MIC assay; format: cell-based; conditions: two-fold serial dilutions in liquid media, n = 2–3
[17] = system: human cells (A498, BEAS-2B, Caco-2, HaCaT, HepG2, IMR-90)
[18] = Cytotoxic assay, summary over the six human cell types; conditions: human, 48 h exposure
[19] = system: human cells (A498, BEAS-2B, Caco-2, HaCaT, HepG2, IMR-90); assay: as above
[20] = system: normal epidermal keratinocytes (HaCaT); conditions: human
[21] = system: Candida tropicalis (DSM9419); assay: MIC assay; format: cell-based; conditions: two-fold serial dilutions in liquid media, n = 2–3
liver cell line HepG2 = conditions: human
[22] = system: Mycobacterium abscessus S (CIP 104536^T); assay: MIC assay (REMA); format: cell-based; conditions: REMA microdilution, n = 2–3
[23] = system: intestinal cell line Caco-2; conditions: human
[24] = system: Enterobacter cloacae (DSM30054); assay: MIC assay; format: cell-based; conditions: two-fold serial dilutions in liquid media, n = 2–3
[25] = system: Streptococcus pyogenes (DSM20565); assay: MIC assay; format: cell-based; conditions: two-fold serial dilutions in liquid media, n = 2–3
E. coli ATCC8739 = assay: MIC assay; format: cell-based, Escherichia coli; conditions: Escherichia coli, ATCC8739; two-fold serial dilutions in liquid media; n = 2–3
[26] = system: Mycobacterium tuberculosis H37Rv (mc^26230); assay: MIC assay (REMA); format: cell-based; conditions: REMA microdilution, n = 2–3
[27] = system: Enterococcus faecalis (DSM2570); assay: MIC assay; format: cell-based; conditions: two-fold serial dilutions in liquid media, n = 2–3
B. subtilis ATCC6633 = assay: MIC assay; format: cell-based, Bacillus subtilis; conditions: Bacillus subtilis, ATCC6633; two-fold serial dilutions in liquid media; n = 2–3
[28] = system: Listeria monocytogenes (DSM20600); assay: MIC assay; format: cell-based; conditions: two-fold serial dilutions in liquid media, n = 2–3
[29] = system: Cryptococcus neoformans (DSM11959); assay: MIC assay; format: cell-based; conditions: two-fold serial dilutions in liquid media, n = 2–3

Q: Which results are given for CC(=O)Nc1ccc2c(c1)C(=O)/C(=C/c1cccc(OCc3ccccc3)c1)O2 [Compound 10, (Z)-N-(2-(3-(benzyloxy)benzylidene)-3-oxo-2,3-dihydrobenzofuran-5-yl)acetamide]?
A: MIC [1]: 12.5 µM (≈ 4.82 µg/mL); MIC [2]: 12.5 µM (≈ 4.82 µg/mL); MIC [3]: 100 µM (≈ 38.5 µg/mL); TI with MIC of 0.78 µM, A498 [4]: 510.5; MIC [5]: 25 µM (≈ 9.64 µg/mL); MIC (Candida auris (DSM21092)): 50 µM (≈ 19.3 µg/mL); MIC [6]: > 100 µM; MIC [7]: 0.78 µM (≈ 0.301 µg/mL); MIC (Yersinia pestis (NR-641)): 12.5 µM (≈ 4.82 µg/mL); MIC [8]: 12.5 µM (≈ 4.82 µg/mL); MIC (M. smegmatis ATCC700084): 50 µM (≈ 19.3 µg/mL); CC50 at 48 h [9]: 268 µM; MIC (MRSA (ATCCBAA-1717)): 12.5 µM (≈ 4.82 µg/mL); MIC ([10]; Mycobacteroides abscessus, CIP104536, R morphotype): > 100 µM; MIC Mycobacterium abscessus R(CIP 104536^T) ([10]; R morphotype): inactive; MIC ([11]; Aspergillus fumigatus, DSM819): > 100 µM; MIC Aspergillus fumigatus (DSM819) [11]: inactive; TI with MIC of 0.78 µM, BEAS-2B [12]: 216.6; MIC (Bacillus cereus (DSM31)): 12.5 µM (≈ 4.82 µg/mL); TI with MIC of 0.78 µM, IMR-90 [13]: 540.2; CC50 at 48 h [14]: 421 µM; MIC [15]: 50 µM (≈ 19.3 µg/mL); MIC [16]: 25 µM (≈ 9.64 µg/mL); TI values, range over human cells [17]: 216.6-605.6; CC50 at 48 h ([18]; Highest CC50, highest of the six human cell types): 472 µM; CC50 at 48 h ([18]; Lowest CC50, lowest of the six human cell types): 169 µM; CC50 at 48 h ([18]; Mean CC50, mean over the six human cell types): 322 µM; Highest TI ([19]; highest CC50 on human cells divided by MIC on S. aureus): 37.7; Lowest TI ([19]; lowest CC50 on human cells divided by MIC on S. aureus): 13.5; TI with MIC of 0.78 µM, HaCaT [20]: 344.2; MIC [21]: 100 µM (≈ 38.5 µg/mL); melting point: 204.5 °C; TI with MIC of 0.78 µM, HepG-2 (liver cell line HepG2): 605.6; MIC ([22]; Mycobacteroides abscessus, CIP104536, S morphotype): > 100 µM; MIC Mycobacterium abscessus S (CIP 104536^T) ([22]; S morphotype): inactive; TI with MIC of 0.78 µM, Caco-2 [23]: 255.8; MIC ([24]; Enterobacter cloacae, DSM30054): > 100 µM; MIC [24]: >100 µM; MIC [25]: 50 µM (≈ 19.3 µg/mL); MIC (E. coli ATCC8739): 12.5 µM (≈ 4.82 µg/mL); MIC ([26]; Mycobacterium tuberculosis, H37RV): > 100 µM; MIC Mycobacterium tuberculosis H37Rv (mc^26230) [26]: inactive; MIC [27]: 50 µM (≈ 19.3 µg/mL); MIC (B. subtilis ATCC6633): 3.12 µM (≈ 1.2 µg/mL); MIC [28]: 3.12 µM (≈ 1.2 µg/mL); MIC [29]: 25 µM (≈ 9.64 µg/mL)
